Test results from US12097181B2, “Swine maternal neonatal pheromone” (Texas Tech University System, priority 2019, dated 2024).
Entries after “also recorded” stand apart in the source; their conditions may differ.

System: piglets
Assay: Preference test: piglet preference for feeders sprayed with maternal semiochemicals
Format: in vivo, Swine (Sus scrofa)
Details: for overall preference index (PI) / percentage of time piglets spent interacting with the feeder: feeder sprayed with 5 mL testing solution (4.5 mg skatole and/or 9.0 mg myristic acid) vs mineral oil control feeder, litters 7±2 d of age, two 5-h test days; for piglet preference or aversion for sprayed feeder compared to control: feeder sprayed with testing solution vs mineral oil control
Method: Piglets used in this study were from a terminal cross between PIC Camborough genetic line sows and a terminal sire. Litters were housed in conventional slatted floor farrowing crates (1.52 m×2.13 m). All piglets were ear notched, teeth clipped, and injected with iron at 3 days of age. During this day, all males within a litter were also castrated by farm personnel. Prior to the study, piglets had no creep feeder. The preference test was performed in their home farrowing crate. Preference tests were conducted to determine piglet preference for skatole and myristic acid. First, nine litters (105 piglets) were used to evaluate piglet preference toward a solution containing both, skatole and myristic acid (N=9). Once piglet preference for a solution containing both molecules was determined, 8 litters (79 piglets) were used to evaluate piglet preference for skatole (N=8) and another 8 litters (80 piglets) to evaluate piglet preference for myristic acid (N=8) individually. Each litter was tested only once to ensure that piglets were tested at the same age and that they were not previously exposed to a feeder or a semiochemical.
At 7±2 days of age, two three-hole galvanized steel baby pig feeders were placed at each front corner of the farrowing crate for five hours for two consecutive days (FIG. 6). […] The sow was present during each five hours trial. Each feeder contained 100 g of pig pre-starter (MoorMan's ShowTec Prestarter, ADM, Quincy, IL) and was sprayed with either 5 mL of mineral oil (control) or 5 mL of the testing solution. The solution was sprayed on the feeder and not the feed. The 5 mL of the testing solution contained 4.5 mg of skatole and/or 9.0 mg of myristic acid. This concentration was selected based on the estimated concentration of each analyte in 150 g of lactating sow faeces based on GC/MS analysis. On the second testing day, feeder locations were switched to correct for side biases. A single observer following a 30 second scan sampling method, observed the behavior of each piglet in the litter at 30 second intervals to determine the percentage of time piglets spent interacting with each feeder during the five-hour period each testing day. A total of 600 observations were recorded per litter in each testing day. The percentage of time piglets within a litter spent interacting with each feeder was calculated by dividing the number of time piglets were observed interacting with a feeder over the total number of observations. Interacting with the feeder was defined as when piglets were sniffing, touching or licking the area of the feeder sprayed with the solution or eating or rooting the feed. A preference index was calculated for each feeder by dividing the amount of time piglets were observed interacting with a feeder by the sum of the number of times piglets were observed interacting with both feeders.
For each litter (experimental unit), an overall feed intake, preference index, and percentage of time interacted with each feeder was obtained from both testing days. Difference in overall feed intake, preference index, and percentage of time piglets spent interacting with the control and the feeder sprayed with the testing solutions were analyzed using the Wilcoxon-singed ranked test. […] All statistical analyses were performed using SAS 9.4. (SAS Inst., Inc., Cary, NC). A statistically significant difference was based on a P value≤0.05.

Row | SMILES | overall preference index (PI) | percentage of time piglets spent interacting with the feeder | piglet preference or aversion for sprayed feeder compared to control
1 | CCCCCCCCCCCCCC(=O)O [Myristic acid, Tetradecanoic acid] | 0.47 | 0.48% | No preference or aversion; also recorded: No preference
2 | Cc1c[nH]c2ccccc12 [Skatole, 3-methylindole] | 0.51 | 0.54% | No preference or aversion; also recorded: No preference
